Assays:
[1] = system: pre-synaptic 5-HT1A receptor; assay: Antagonism of hypothermia induced by 8-OH-DPAT in mice; type: in vivo; settings: s.c., hypothermia induced by 0.5 mg/kg s.c. 8-OH-DPAT
Protocol: Antagonism of hypothermia induced by 8-OH-DPAT in mice:
The antagonistic effect of 5-HT1A receptor antagonists on hypothermia induced by 8-OH-DPAT was evaluated by the method of Moser (Moser, Eur. J. Pharmacol., 193, 165, 1991) with minor modifications.
Male CD-1 mice (28-38 g) obtained from Charles River (Italy) were housed in a climate-controlled room (temperature 22 ± 2°C; humidity 55 ± 15%) and maintained on a 12 h light/dark cycle with free access to food and water. On the day of experiment, mice were placed singly in clear plastic boxes under the same ambient conditions. Body temperature was measured by the insertion of a temperature probe (Termist TM-S, LSI) into the rectum to a depth of 2 cm. Rectal temperature was measured immediately prior to subcutaneous injection of the test compound and 30 min later. All animals then received 8-OH-DPAT (0.5 mg/kg s.c.) and their temperature was measured 30 min later. For each animal, temperature changes were calculated with respect to pretreatment values and the mean values were calculated for each treatment group.

[2] = system: cystometric parameters (bladder volume capacity, micturition pressure); assay: Cystometric parameters (BVC, MP) in the conscious rat; type: in vivo, rats; settings: for BVC before treatment / MP before treatment: baseline; for BVC before treatment / MP before treatment / BVC after treatment / MP after treatment: mean±S.E.
Protocol: Male Sprague Dawley rats (Crl: CD° BR) weighing 250-350 g were used. The animals were housed with free access to food and water and maintained on a forced 12 h alternating light-dark cycle at 22-24°C for at least one week, except during performance of the experiment.
An approximately 10 mm long midline incision was made in the shaved and cleaned abdominal wall. The urinary bladder was gently freed from adhering tissues, emptied, and then cannulated, via an incision at the dome, with a polyethylene cannula (Portex PP30), which was permanently sutured with silk thread. The cannula was exteriorized through a subcutaneous tunnel in the retroscapular area, where it was connected with a plastic adapter to avoid the risk of removal by the animal. For intravenous (i.v.) injection of test compounds, a PE 50 polyethylene tubing filled with physiological saline was inserted into the jugular vein and exteriorized in the retroscapular area.
Since cystometrographic parameters have been reported to be influenced by the time elapsed after catheter implantation […].
On the day of the experiment, the rats were placed in Bollman's cages; after a stabilization period of 20 min, the free tip of the bladder catheter was connected through a T-shaped tube to a pressure transducer (Bentley T 800/Marb P 82) and to a peristaltic pump (Gilson minipuls 2) for a continuous infusion, at the constant rate of 0.1 ml/min, of saline solution into the urinary bladder. The intraluminal pressure signal during infusion was continuously recorded on a polygraph (Battaglia Rangoni KO 380 with ADC1/T amplifier). Two urodynamic parameters were evaluated: bladder volume capacity (BVC) and micturition pressure (MP). BVC (in ml) is defined as the minimum volume infused after which detrusor contraction (followed by micturition) occurs. MP (in mmHg) is defined as the maximal intravesical pressure induced by the contraction of detrusor during micturition. Basal BVC and MP values were calculated as the means of the first two recorded cystometrograms. At this point, the infusion was interrupted and the test compounds were administered. Fifteen minutes after intravenous administration, or one hour after oral drug administration, two additional cystometrograms were recorded in each animal and the mean values of the two cystometrographic parameters were calculated.
The statistical significance of the differences in urodynamic parameter values was evaluated by Student's t test for paired data. Only changes showing a probability P<0.01 were considered to be significant.

5-HT1A receptor = biological target: T1, 5-HT1A receptor (Rattus norvegicus, UniProt P19327); assay: [3H]8-OH-DPAT binding (5HT1A receptors), rat hippocampi; settings: 1 nM [3H]8-OH-DPAT, read-out: Binding affinity for the 5-HT1A receptor, Ki
T1 construct: Rat hippocampi were homogenized in 50 volumes of ice-cold 50 mM Tris-HCl pH 7.4; from tissue; host or cells: rat hippocampus membranes
T1 sequence (P19327 1-422): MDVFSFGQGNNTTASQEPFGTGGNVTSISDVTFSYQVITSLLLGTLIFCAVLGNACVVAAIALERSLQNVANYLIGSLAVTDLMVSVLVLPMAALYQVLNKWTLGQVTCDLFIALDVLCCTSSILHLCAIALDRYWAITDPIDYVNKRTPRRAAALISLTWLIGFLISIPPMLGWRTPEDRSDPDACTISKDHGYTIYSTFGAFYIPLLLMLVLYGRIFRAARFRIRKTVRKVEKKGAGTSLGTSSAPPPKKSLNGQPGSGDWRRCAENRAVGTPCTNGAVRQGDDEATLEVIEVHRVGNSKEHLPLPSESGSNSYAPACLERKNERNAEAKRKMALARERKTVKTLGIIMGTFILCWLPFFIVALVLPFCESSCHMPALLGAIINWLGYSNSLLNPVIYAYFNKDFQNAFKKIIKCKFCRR
Protocol: [^3H]8-OH-DPAT binding (5HT1A receptors):
Rat hippocampi were homogenized in 50 volumes of ice-cold 50 mM Tris-HCl pH 7.4. The homogenates were centrifuged at 48,000 x g for 10 minutes, and the pellets were resuspended in the same volume of ice-cold buffer, incubated for 10 minutes at 37°C, centrifuged and resuspended two more times. The final pellets obtained were resuspended in 100 volumes of 50 mM Tris-HCl, pH 7.4, containing 0.1 % ascorbic acid and 10 µM pargyline. 1 ml samples were incubated for 30 min at 25°C with 1 nM [^3H]8-OH-DPAT, in absence or presence of different concentrations (10^-5 to 10^-10 M) of the test compound. Non-specific binding was determined in the presence of 10 µM 5-HT. The incubations were terminated by rapid filtration through Whatman GF/B filters using a Brandel cell harvester, after which the filters were washed with 3 x 3 ml of ice-cold buffer. The radioactivity retained on the filters was determined by liquid scintillation counting.

[3] = 30 µg/kg i.v., 15 min after injection
[4] = 100 µg/kg i.v., 15 min after injection
[5] = 300 µg/kg i.v., 15 min after injection
[6] = 10 mg/kg p.o., 1 hour after oral administration
[7] = 30 mg/kg p.o., 1 hour after oral administration
[8] = conscious rats, i.v., NAN-190 up to the highest administrable dose of 300 µg/kg

With COc1ccccc1N1CCN(CCCCN2C(=O)c3ccccc3C2=O)CC1 [NAN-190, 1-(2-methoxyphenyl)-4-[4-(2-phthalimido)-butyl]-piperazine] the “ID50 (95%) C.L., antagonistic activity for the pre-synaptic 5-HT1A receptor” value [1] was “not active”, the BVC before treatment ([2]; 30 µg/kg i.v. group) was 0.74 ± 0.09 mL and the MP before treatment ([2]; 30 µg/kg i.v. group) was 99.4±10.1 mmHg. For the same compound, the BVC % change [2, 3] was “+6%”, the MP % change [2, 3] was “+5%” and the BVC after treatment [2, 3] was 0.78 ± 0.10 mL. The MP after treatment [2, 3] was 104.6±9.7 mmHg, the BVC before treatment ([2]; 100 µg/kg i.v. group) was 0.68 ± 0.10 mL and the MP before treatment ([2]; 100 µg/kg i.v. group) was 93.8±11.5 mmHg. For the same compound, the BVC % change [2, 4] was “+12%”, the MP % change [2, 4] was -12% and the BVC after treatment [2, 4] was 0.76 ± 0.10 mL. The MP after treatment [2, 4] was 82.5±9.2 mmHg, the BVC before treatment ([2]; 300 µg/kg i.v. group) was 0.62 ± 0.06 mL and the MP before treatment ([2]; 300 µg/kg i.v. group) was 86.6±10.3 mmHg. For the same compound, the BVC % change [2, 5] was -1%, the MP % change [2, 5] was “+2%” and the BVC after treatment [2, 5] was 0.61 ± 0.06 mL. The MP after treatment [2, 5] was 88.4±11.8 mmHg, the BVC before treatment ([2]; 10 mg/kg p.o. group) was 0.54 ± 0.08 mL and the MP before treatment ([2]; 10 mg/kg p.o. group) was 106.1±10.4 mmHg. The BVC % change [2, 6] was -14%, the MP % change [2, 6] was -14% and the BVC after treatment [2, 6] was 0.46 ± 0.07 mL. It also gave an MP after treatment [2, 6] of 90.8±12.5 mmHg, a BVC before treatment ([2]; 30 mg/kg p.o. group) of 0.71 ± 0.09 mL and an MP before treatment ([2]; 30 mg/kg p.o. group) of 105.1±10.5 mmHg. It also gave a BVC % change [2, 7] of -15%, an MP % change [2, 7] of -9% and a BVC after treatment [2, 7] of 0.60 ± 0.09 mL. The MP after treatment [2, 7] was 95.8±15.3 mmHg, the “effect on BVC (in words)” value [2, 8] was “devoid of significant effects” and the “effect on MP (in words)” value [2, 8] was “devoid of significant effects”. For the same compound, the “activity on cystometric parameters after oral administration (in words)” value ([2]; conscious rats, oral, doses up to 30 mg/kg) was “inactive” and the Ki (5-HT1A receptor) was 1.9 nM.

From patent EP0906100B1, “USE OF 5-HT 1A? RECEPTOR ANTAGONISTS FOR THE TREATMENT OF URINARY INCONTINENCE” (RECORDATI S.A., priority 1996, dated 1997)
